Experimental data published in US20250186411A1, “Methods of Treating Disorders Associated with Overactivation of IKKB” (The United States Government as represented by the …, priority 2023, published 2025).

Columns and labels:
[1] = tested on: KLF15 promoter (pEZX-FR03hKLF15p human podocytes); assay: KLF15 reporter high-throughput screening assay in human podocytes (firefly/renilla luciferase); assay type: cell-based; settings: for fold induction at 1 µM: Homo sapiens, NCI library hits, 24 hours, read-out: Fold Change (KLF15 reporter activity)
Protocol: Briefly, these podocytes proliferate under permissive conditions (gamma interferon at 33° C.), but differentiate under nonpermissive conditions (37° C.).
The amplified fragment contains MluI and PmeI RE sites and was subcloned into the MluI and PmeI cloning site of the pEZX-FR03 Firefly luciferase (FLuc) and Renilla luciferase (Rluc) reporter cloning vector (GeneCopoeia) to generate pEZX-FR03hKLF15p. Following verification of the sequence by restriction and μsequencing, the pEZX-FR03hKLF15p construct (which contains a puromycin resistance cassette) was transfected into human podocytes followed by selection in puromycin-containing media for 2 weeks. Surviving podocytes clones were pooled together for further analysis.
The library of compounds from the National Cancer Institute (Approved Oncology Drugs Set VI; Natural Products Set III; Diversity Set V; and Mechanistic Diversity Set II) were added to a final concentration of 1 μM in 0.5% DMSO in the low FBS cell culture media (0.2% FBS) using liquid handling system PipetMax (Gilson). After 24 hours incubation at 37° C., the Luc-Pair™ Duo-Luciferase HT Assay Kit (GeneCopoeia LF015) were used and firefly and renilla luciferase activity was determined using the SpectraMax M3 (Molecular Devices). Positive controls were all-trans retinoic acid (atRA) (1 μM) and dexamethasone (DEX) (1 μM). Negative controls were DMSO and cell-free media.
(§1) To identify small molecule inducers of KLF15 expression in human podocytes, human podocytes were generated with a dual reporter, firefly luciferase directed at the KLF15 promoter region and renilla luciferase (pEZX-FR03hKLF15p). […] The positive controls were inducers of KLF15 expression, dexamethasone (DEX) and all-trans retinoic acid (atRA), and […] and cell-free wells served as negative controls.

[2] = tested on: KLF15 promoter with mutation in the GRE (pEZX-FR03hKLF5p-mutant podocytes); assay: GR-mutant KLF15 reporter assay; assay type: cell-based, human; settings: as compared to DMSO
[3] = tested on: human podocytes; assay: Cell viability of podocytes (renilla activity, MTS assay); assay type: cell-based; settings: for toxicity to human podocytes: analogue screen
Protocol: (§2) Differentiated pEZX-FR03hKLF5p human podocytes were treated with 25 μg/ml lipopolysaccharide (LPS) or vehicle and 1 μM KLF15 agonist or vehicle control for 24 hours. Firefly and renilla luciferase assay were measured initially to determine relative KLF15 reporter activity.
(§3) Differentiated pEZX-FR03hKLF5p human podocytes were treated with 0.4 μg/ml adriamycin (ADR) or vehicle and 1 μM KLF15 agonist or vehicle control for 24 hours. Firefly and renilla luciferase assay were measured initially to determine relative KLF15 reporter activity.
To assess cell viability, the CellTiter 96® AQueous One Solution Reagent (Promega) was added to the culture media and plates were incubated for 2 hours at 37° C. with 5% CO2.

[4] = tested on: KLF15 promoter (pEZX-FR03hKLF5p human podocytes); assay: Lipopolysaccharide treatment in human podocytes, KLF15 reporter activity; assay type: cell-based; settings: as compared to DMSO
Protocol: as §2

[5] = tested on: KLF15 promoter (pEZX-FR03hKLF5p human podocytes); assay: Adriamycin treatment in human podocytes, KLF15 reporter activity; assay type: cell-based; settings: as compared to DMSO-treated podocytes
Protocol: as §3

[6] = tested on: KLF15 promoter (pEZX-FR03hKLF15p human podocytes); assay: Half maximal effective concentration (EC50) of KLF15 reporter activity; assay type: cell-based; settings: Homo sapiens; KLF15 reporter activity, dose-response; read-out: EC50
Protocol: The EC50 was determined using nonlinear regression and then choosing the equation of Sigmoidal function, 4PL method (X is log(concentration); or the equation of log(agonist) vs. response—variable slope).
as §1

[7] = tested on: FVB/n mice; assay: LPS-induced proteinuric murine model; assay type: in vivo, mouse; settings: LPS proteinuric murine model, concurrent treatment, vs DMSO
Protocol: In the LPS-induced proteinuric model, all 8-week-old FVB/n mice were initially treated with LPS [intraperitoneal (IP), 10 μg/g, Sigma-Aldrich] or sterile normal saline (IP) at 0- and 24-hour time points as previously described (17). […] Urine was collected and mice were euthanized 48 hours post-LPS treatment.
Urine albumin was quantified by ELISA using a kit from Bethyl Laboratory Inc. Urine creatinine levels were measured in the same samples using the Creatinine Colorimetric Assay Kit (500701; Cayman Chemical) as per manufacturer's protocol.
Briefly, mice were perfused with PBS containing 2.5 mg/ml iron oxide and 1% BSA. At the end of perfusion, kidneys were removed, decapsulated, minced into 1 mm^3 pieces, and digested in PBS containing 1 mg/ml collagenase A. Digested tissue was subsequently passed through a 100 μm cell strainer and collected by centrifugation. The pellet was resuspended in 1 ml PBS and glomeruli were collected using a magnet. The purity of glomeruli was verified under microscopy. Total RNA was isolated from kidney glomeruli of mice using the RNeasy Kit (Qiagen, Germantown, MD).
(§4) Total RNA from cells was extracted by using TRIzol (Life Technologies). First-strand cDNA was prepared from total RNA (up to 1.25 μg) using the SuperScript™ IV VILO™ Master Mix (Life Technologies), and cDNA was amplified in triplicate using PowerUp™ SYBR™ Green Master Mix on an ABI QuantStudio3 (Applied Biosystems). Primers for human and mouse genes were designed using NCBI Primer-BLAST and validated for efficiency before application (Table 1). Data were normalized to housekeeping genes (GAPDH or ACTB) and presented as a fold increase compared with RNA isolated from the control group using the ΔΔCT method.
Transmission Electron Microscopy (TEM) was done in the Central Microscopy Imaging Center at Stony Brook Medicine. Briefly, after embedding the kidney tissues in epoxy resin, ultrathin sections were stained with uranyl acetate and lead citrate, then mounted on a copper grid, and photographed under a FEI BioTwin G2 Transmission Electron Microscope with AMT XR-60 CCD digital Camera (FEI).

[8] = tested on: KLF15 and Synaptopodin expression; assay: Real-time PCR of KLF15 and synaptopodin in podocytes under LPS; assay type: cell-based, human; settings: podocytes under LPS conditions, vs DMSO
Protocol: as §4

[9] = tested on: differentiated human podocytes; assay: Actin stress fiber formation and KLF15 immunocytochemistry; assay type: cell-based; settings: LPS-treated podocytes
Protocol: To determine actin stress fiber formation, differentiated human podocytes were treated with 25 μg/ml LPS or vehicle and 1 μM KLF15 agonist or vehicle control for 24 hours. Subsequently, podocytes were fixed and stained for F-actin using Alexa Fluor 647 Phalloidin (Life Technologies). Fixation, permeabilization, and staining with phalloidin were performed as per the manufacturer's protocol. […] Briefly, phalloidin staining pattern in each cell was classified into the following types: Type A (90% of cell area filled with thick cables), Type B (no thick cables but some cables present), and Type C (no cables visible in the central area of the cell). Unless specified, 100-200 cells were quantified in a blinded manner for each group in three independent experiments.
Differentiated human podocytes were initially washed with phosphate-buffered saline (PBS) and subsequently fixed with 3.7% formaldehyde in the growth medium. Podocytes were washed and permeabilized with 0.25% Triton X-100, and then blocked in 10% normal horse serum (NHS) and incubated with rabbit anti-KLF15 antibody overnight. The next day, cells were washed with PBS and incubated in Donkey anti-Rabbit IgG (H+L) Secondary Antibody, Alexa Fluor™ 568 (Invitrogen) in 10% NHS. Subsequently, cells were washed and incubated with Hoechst (Thermo Fisher Scientific) before mounting.

[10] = as compared to DMSO-treated podocytes

| SMILES | KLF15 activity as compared to DEX-treated podocytes [1] | EC50 [6] [nM] | KLF15-mutant reporter activity [2] | toxicity to human podocytes [3] | KLF15 activity in the setting of LPS treatment [4] | fold induction at 1 µM [1] | KLF15 activity in the setting of adriamycin (ADR) [5] | albuminuria [7] | KLF15 and Synaptopodin expression [8] | KLF15 expression and actin stress fiber formation (immunostaining) [9] | cell viability (renilla activity and MTT assay) in the setting of ADR [3, 10] | renilla activity in dose-response ([3]; higher doses (10^4 nM), relative to DMSO) | renilla activity (cell viability) in the setting of LPS treatment [3, 10] |
| --- | --- | --- | --- | --- | --- | --- | --- | --- | --- | --- | --- | --- | --- |
| O=C(Nc1ccc2ccccc2c1)c1ccc(Cl)cc1Cl [C-15, 2,4-dichloro-N-(naphthalen-2-yl)benzamide] |  | 10.9 | induced similar KLF15 activity |  |  | 2.97 | induced KLF15 activity |  |  |  |  |  |  |
| Nc1ccccc1-n1nc2ccc3ccccc3c2n1 [C-9, 2-benzo[e]benzotriazol-2-ylaniline] |  | 76.3 | induced similar KLF15 activity |  |  | 2.72 | induced KLF15 activity |  |  |  |  |  |  |
| CSc1ccc(NC(=O)Nc2cc(C)ccn2)cc1 [C-7, 1-(4-Methylpyridin-2-yl)-3-(4-methylsulfanylphenyl)urea] |  | 11.9 | induced similar KLF15 activity |  | maintained KLF15 activity | 3.17 | induced KLF15 activity | significantly abrogated albuminuria | restored | restored KLF15 expression and actin stress fiber formation | maintained | significant increase in renilla activity |  |

Now from value to compound, other results behind:

| KLF15 activity as compared to DEX-treated podocytes [1] | EC50 [6] [nM] | SMILES | KLF15-mutant reporter activity [2] | toxicity to human podocytes [3] | KLF15 activity in the setting of LPS treatment [4] | fold induction at 1 µM [1] | KLF15 activity in the setting of adriamycin (ADR) [5] | albuminuria [7] | KLF15 and Synaptopodin expression [8] | KLF15 expression and actin stress fiber formation (immunostaining) [9] | cell viability (renilla activity and MTT assay) in the setting of ADR [3, 10] | renilla activity in dose-response ([3]; higher doses (10^4 nM), relative to DMSO) | renilla activity (cell viability) in the setting of LPS treatment [3, 10] |
| --- | --- | --- | --- | --- | --- | --- | --- | --- | --- | --- | --- | --- | --- |
| higher KLF15 activity |  | CSc1ccc(NC(=O)c2ccc(O)cc2)cc1 [BT501] | induced KLF15 activity | no observed toxicity | maintained the elevated KLF15 activity |  |  |  |  |  |  |  |  |
| higher KLF15 activity |  | CSc1ccc(NC(=O)Nc2ccc(C#N)cn2)cc1 [BT502] | induced KLF15 activity | no observed toxicity | maintained the elevated KLF15 activity |  |  |  |  |  |  |  | restored renilla activity |
